Assay results taken from ChEMBL document CHEMBL6092211, “Discovery and evaluation of novel SHIP-1 inhibitors” (Bioorg Med Chem, 2024).

Columns and labels:
[1] = target: T1, Phosphatidylinositol 3,4,5-trisphosphate 5-phosphatase 1 (Homo sapiens, UniProt Q92835); assay: Inhibition of human SHIP-1 (397 to 715 residues) catalytic domain expressed in Rosetta DE3 BL21 cells using 1-(1,2-dioctanoylphosphatidyl) inositol-3,4,5-trisphosphate as substrate by malachite green based spectramax microplate reader analysis
T1 sequence (Q92835 whole entry): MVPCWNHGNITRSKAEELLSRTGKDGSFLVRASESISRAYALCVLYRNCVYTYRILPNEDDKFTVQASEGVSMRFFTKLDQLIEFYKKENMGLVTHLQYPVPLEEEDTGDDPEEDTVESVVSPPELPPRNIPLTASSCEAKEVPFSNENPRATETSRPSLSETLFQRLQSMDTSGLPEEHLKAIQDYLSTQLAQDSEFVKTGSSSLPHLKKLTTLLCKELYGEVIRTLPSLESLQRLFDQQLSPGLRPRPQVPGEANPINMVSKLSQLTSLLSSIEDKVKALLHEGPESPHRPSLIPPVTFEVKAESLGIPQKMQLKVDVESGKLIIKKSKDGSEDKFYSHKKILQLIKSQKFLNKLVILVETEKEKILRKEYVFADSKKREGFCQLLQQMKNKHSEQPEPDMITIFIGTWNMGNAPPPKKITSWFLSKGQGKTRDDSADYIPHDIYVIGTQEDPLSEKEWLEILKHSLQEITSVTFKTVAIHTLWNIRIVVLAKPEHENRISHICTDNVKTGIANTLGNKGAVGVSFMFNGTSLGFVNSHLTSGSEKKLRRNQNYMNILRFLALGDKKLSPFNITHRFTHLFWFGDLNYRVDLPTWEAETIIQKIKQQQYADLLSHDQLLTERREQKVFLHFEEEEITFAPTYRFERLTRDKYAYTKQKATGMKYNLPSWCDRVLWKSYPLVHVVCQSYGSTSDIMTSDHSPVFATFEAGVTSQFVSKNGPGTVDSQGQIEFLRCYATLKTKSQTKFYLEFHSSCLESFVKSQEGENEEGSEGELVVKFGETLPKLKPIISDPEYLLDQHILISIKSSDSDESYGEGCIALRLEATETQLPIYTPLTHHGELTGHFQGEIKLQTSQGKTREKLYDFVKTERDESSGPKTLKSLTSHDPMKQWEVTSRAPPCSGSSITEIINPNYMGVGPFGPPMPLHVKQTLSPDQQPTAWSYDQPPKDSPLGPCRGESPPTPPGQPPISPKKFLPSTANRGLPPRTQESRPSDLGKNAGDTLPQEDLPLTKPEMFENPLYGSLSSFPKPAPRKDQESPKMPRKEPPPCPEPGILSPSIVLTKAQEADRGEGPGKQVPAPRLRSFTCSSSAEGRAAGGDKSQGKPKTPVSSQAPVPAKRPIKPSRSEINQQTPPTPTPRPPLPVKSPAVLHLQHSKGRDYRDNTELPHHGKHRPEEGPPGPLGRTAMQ

[2] = target: T1, Phosphatidylinositol 3,4,5-trisphosphate 5-phosphatase 1; assay: Inhibition of SHIP-1 (unknown origin) using PtdIns(3,4,5)P3 as substrate by malachite green solution based […] analysis
[3] = target: T1, Phosphatidylinositol 3,4,5-trisphosphate 5-phosphatase 1; assay: Inhibition of recombinant SHIP-1 (unknown origin) using PtdIns(3,4,5)P3 as substrate incubated for 30 mins by malachite green solution based analysis
[4] = Cytotoxicity against human HMC3 cells assessed as cell count incubated for 48 hrs by Hoechst-33342 staining based analysis; type: toxicity
[5] = target: T1, Phosphatidylinositol 3,4,5-trisphosphate 5-phosphatase 1; assay: Competitive inhibition of human SHIP-1 (397 to 715 residues) catalytic domain expressed in Rosetta DE3 BL21 cells assessed as inhibition constant by Lineweaver-Burk plot analysis; type: cell-based
HMC3 [6] = assay: cells; settings: Homo sapiens, HMC3, 48 h
HMC3 [7] = assay: cells; settings: Homo sapiens, HMC3, 48 h; remark: listed apart in the source
[8] = target: T2, Phosphatidylinositol 3,4,5-trisphosphate 5-phosphatase 2 (Homo sapiens, UniProt O15357); assay: Inhibition of recombinant SHIP-2 (unknown origin) using PtdIns(3,4,5)P3 as substrate incubated for 30 mins by malachite green solution based analysis
T2 sequence (O15357 whole entry): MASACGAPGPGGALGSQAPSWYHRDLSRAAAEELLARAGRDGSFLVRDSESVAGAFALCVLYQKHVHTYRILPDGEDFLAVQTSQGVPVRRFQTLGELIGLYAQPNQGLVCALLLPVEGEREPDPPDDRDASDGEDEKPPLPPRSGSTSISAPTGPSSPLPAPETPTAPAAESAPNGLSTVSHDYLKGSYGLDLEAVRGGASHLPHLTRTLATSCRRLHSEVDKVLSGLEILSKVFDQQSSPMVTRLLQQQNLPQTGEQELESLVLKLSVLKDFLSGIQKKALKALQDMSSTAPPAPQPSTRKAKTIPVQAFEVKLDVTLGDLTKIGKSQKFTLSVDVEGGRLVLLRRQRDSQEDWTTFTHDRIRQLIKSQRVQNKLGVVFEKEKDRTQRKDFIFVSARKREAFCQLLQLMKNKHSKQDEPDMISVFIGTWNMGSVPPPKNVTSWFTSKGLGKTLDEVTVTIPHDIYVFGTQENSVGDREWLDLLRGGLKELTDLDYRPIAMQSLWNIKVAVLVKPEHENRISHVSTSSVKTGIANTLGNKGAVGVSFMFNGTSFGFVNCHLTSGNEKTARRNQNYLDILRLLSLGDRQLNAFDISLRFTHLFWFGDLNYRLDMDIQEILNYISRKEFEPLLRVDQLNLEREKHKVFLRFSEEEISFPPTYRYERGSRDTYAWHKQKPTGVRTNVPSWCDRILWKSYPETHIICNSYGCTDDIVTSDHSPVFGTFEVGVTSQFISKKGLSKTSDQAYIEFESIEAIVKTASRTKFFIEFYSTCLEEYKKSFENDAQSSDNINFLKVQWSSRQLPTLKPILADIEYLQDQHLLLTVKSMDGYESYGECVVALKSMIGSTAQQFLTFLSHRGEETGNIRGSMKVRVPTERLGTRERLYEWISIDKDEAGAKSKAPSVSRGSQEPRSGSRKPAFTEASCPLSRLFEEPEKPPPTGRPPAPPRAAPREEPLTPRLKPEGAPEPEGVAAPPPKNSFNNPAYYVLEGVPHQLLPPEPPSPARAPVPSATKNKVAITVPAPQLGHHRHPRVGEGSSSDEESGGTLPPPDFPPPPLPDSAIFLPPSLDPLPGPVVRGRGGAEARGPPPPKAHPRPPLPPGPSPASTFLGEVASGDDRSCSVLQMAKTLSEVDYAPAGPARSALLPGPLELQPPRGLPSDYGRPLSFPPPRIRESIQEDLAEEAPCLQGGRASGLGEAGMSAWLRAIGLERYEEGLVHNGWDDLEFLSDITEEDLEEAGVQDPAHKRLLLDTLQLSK

[9] = target: T1, Phosphatidylinositol 3,4,5-trisphosphate 5-phosphatase 1; assay: Inhibition of SHIP-1 (unknown origin) by malachite green solution based […] analysis
[10] = target: T2, Phosphatidylinositol 3,4,5-trisphosphate 5-phosphatase 2; assay: Inhibition of human SHIP-2 (420 to 732 residues) catalytic domain expressed in Rosetta DE3 BL21 cells using -(1,2-dioctanoylphosphatidyflinosito1-3,4,5-trisphosphate as substrate by malachite green based spectramax microplate reader analysis

Row | Compound | IC50 [1] | other results
1 | N#CC1=C2N=C(N)c3ccccc3N2C2=C(C(=O)CCC2)C1c1cccc(Cl)c1 (stereo not given) | 15.4 µM | 
2 | CC(C)CCC[C@@H](C)[C@H]1CC[C@H]2[C@@H]3CC[C@H]4C[C@H](N)CC[C@]4(C)[C@H]3CC[C@]12C |  | IC50 [2]: 13.9 µM
3 | CSc1ccc2c(c1)c(CCN)c(C)n2Cc1ccccc1Cl |  | IC50 [3]: 500 µM
4 | N#CC1=C2N=C(N)c3ccccc3N2C2=C(C(=O)CCC2)C1c1cccnc1 (stereo not given) | 65.5 µM | 
5 | N#CC1=C2N=C(N)c3ccccc3N2C2=C(C(=O)CCC2)C1c1ccc(-c2ccccc2)cc1 (stereo not given) | 6.1 µM | IC50 at 48 h [4]: 19.9 µM; Ki [5]: 3.2 µM; EC50 (HMC3 [6]): 2 µM; EC50 (HMC3 [7]): 20 µM
6 | N#CC1=C2N=C(N)c3ccccc3N2C2=C(C(=O)CCC2)C1c1cc2ccccc2s1 (stereo not given) | 40.2 µM | 
7 | O[C@H](c1cc(-c2ccccc2)nc2c1ccc1ccccc12)[C@@H]1CCCCN1 |  | IC50 [3]: 30 µM; IC50 [8]: 30 µM
8 | C[C@@]12CCC[C@H]1[C@@H]1CC[C@H]3C[C@H](N)[C@H](N)C[C@]3(C)[C@H]1CC2 |  | IC50 [9]: 6 µM
9 | N#CC1=C2N=C(N)c3ccccc3N2C2=C(C(=O)CCC2)C1c1ccc(F)c(F)c1 (stereo not given) | > 40 µM | 
10 | N#CC1=C2N=C(N)c3ccccc3N2C2=C(C(=O)CCC2)C1c1cccc([N+](=O)[O-])c1 (stereo not given) | 36.7 µM | 
11 | O[C@H](c1cc(C23CC4CC(CC(C4)C2)C3)nc2c(Cl)cc(Cl)cc12)[C@@H]1CCCCN1 |  | IC50 [3]: 63 µM; IC50 [8]: 35 µM
12 | C[C@@]12CCC[C@H]1[C@@H]1CC[C@H]3C[C@H](N)CC[C@]3(C)[C@H]1CC2 |  | IC50 [9]: 16 µM

Now from value to compound, other results behind:

Row | IC50 [1] | Compound | other results
13 | 46.6 µM | Cc1oc(-c2ccccc2Cl)nc1Cn1cccc1C1=NC(c2ccccc2)CO1 (stereo not given) | 
14 | 17.7 µM | CC1(C)CC(=O)C2=C(C1)N1C(=C(C#N)C2c2ccc(-c3ccccc3)cc2)N=C(N)c2ccccc21 (stereo not given) | 
15 | > 40 µM | N#CC1=C2N=C(N)c3ccccc3N2C2=C(C(=O)CCC2)C1c1nc2ccccc2s1 (stereo not given) | 
16 | 39 µM | N#CC1=C2N=C(N)c3ccccc3N2C2=C(C(=O)CCC2)C1c1ccc(Cl)cc1Cl (stereo not given) | 
17 | 86.8 µM | N#CC1=C2N=C(N)c3ccccc3N2C2=C(C(=O)CC(c3cccs3)C2)C1c1cccnc1 (stereo not given) | IC50 [10]: > 200 µM
18 | 28.2 µM | N#CC1=C2N=C(N)c3ccccc3N2C2=C(C(=O)CCC2)C1c1cc2ccccc2o1 (stereo not given) | 
19 | 33.6 µM | CC(C)c1ccc(C2C(C#N)=C3N=C(O)c4ccccc4N3C3=C2C(=O)CCC3)cc1 (stereo not given) | 
20 | 10.2 µM | CC(C)c1ccc(C2C(C#N)=C3N=C(N)c4ccccc4N3C3=C2C(=O)CC(C)(C)C3)cc1 (stereo not given) | 
21 | 46.7 µM | CC(=O)C1=C(C)Nc2sc(C(=O)c3ccc(Cl)c(Cl)c3)c(N)c2C1c1cccnc1 (stereo not given) | 
22 | 23.4 µM | N#CC1=C2N=C(N)c3ccccc3N2C2=C(C(=O)CCC2)C1c1cc(Br)ccc1F (stereo not given) | 
23 | 13.2 µM | CC(C)c1ccc(C2C(C#N)=C3N=C(N)c4ccccc4N3C3=C2C(=O)CCC3)cc1 (stereo not given) | 
